Assay results: patent CN107308170A, “药物联用在制备抗炎药物中的应用以及抗炎药物组合物” (priority 2017, dated 2017)

Legend:
[1] = tested on: Hep-2 cells (Hep-2细胞); assay type: cell-based; conditions: 3 days, MTT
[2] = tested on: xylene-induced swelling of the mouse right ear (二甲苯所致的小鼠右耳肿胀); test: 二甲苯致小鼠耳肿胀抗炎试验 (xylene-induced mouse ear swelling test); assay type: in vivo; conditions: oral gavage; for inhibition of xylene-induced right ear swelling (in words) / swelling degree compared with aspirin (in words): used alone, 10mg/kg; for swelling degree compared with aspirin (in words): versus aspirin 150mg/kg

SMILES	CC50 compared with the three-component combination (in words) [1]	inhibition of xylene-induced right ear swelling (in words) ([2]; 5 days)	swelling degree compared with aspirin (in words) ([2]; 5 days)	swelling degree ([2]; aspirin 150mg/kg, once daily for 5 days, xylene 50μL on right ear 1h after last dose, ears weighed 1h later)	anti-inflammatory effect compared between aspirin and test substances (in words) ([2]; aspirin 150mg/kg, test substances 10mg/kg, 5 days)
C[C@]12CC[C@H](O)C[C@H]1CC[C@@H]1[C@@H]2CC[C@]2(C)[C@@H](c3ccc(=O)oc3)CC[C@]12O [蟾毒灵]	远远小于蟾毒灵、酯蟾毒配基以及远华蟾蜍精三者的组合	能够抑制二甲苯所致的小鼠右耳肿胀	肿胀度大于阳性对照药阿司匹林		
C[C@]12CC[C@H](O)C[C@@]1(O)CC[C@@H]1[C@@H]2CC[C@]2(C)[C@@H](c3ccc(=O)oc3)CC[C@]12O [远华蟾蜍精]	远远小于蟾毒灵、酯蟾毒配基以及远华蟾蜍精三者的组合	能够抑制二甲苯所致的小鼠右耳肿胀	肿胀度大于阳性对照药阿司匹林		
C[C@]12CC[C@H](O)C[C@H]1CC[C@@H]1[C@@H]2CC[C@]2(C)[C@@H](c3ccc(=O)oc3)C[C@H]3O[C@]132 [酯蟾毒配基]	远远小于蟾毒灵、酯蟾毒配基以及远华蟾蜍精三者的组合	能够抑制二甲苯所致的小鼠右耳肿胀	肿胀度大于阳性对照药阿司匹林		
CC(=O)Oc1ccccc1C(=O)O [阿司匹林, reference compound]				8.56 mg	优于蟾毒灵、酯蟾毒配基或远华蟾蜍精
